According to article PMC6413024, “Multimerization Increases Tumor Enrichment of Peptide–Photosensitizer Conjugates” (Molecules, 2019):

Legend:
[1] = Singlet oxygen quantum yield in DMSO; type: physicochemical; conditions: DPBF as the quencher and Pyro as the reference
Method: (§1) The UV–Vis absorption spectra and fluorescence spectra of the synthesized conjugates of Pyro-MonoRGD, Pyro-DiRGD, Pyro-TriRGD, and free Pyro were measured in DMSO. Absorption spectra were recorded from 300 to 800 nm. Fluorescence emission and excitation spectra were recorded from 550 to 800 nm upon excitation at approximately 668 nm and emission at 672–673 nm using a Hitachi model F-4500 FL spectrophotometer (Tokyo, Japan). The singlet oxygen quantum yields (ΦΔ) of the conjugates were measured in DMSO using DPBF as the quencher and Pyro as the reference.

[2] = UV–Vis absorption and fluorescence spectra in DMSO; type: physicochemical; conditions: for λmax: UV–Vis absorption in DMSO, Q-band, recorded from 300 to 800 nm; for λem: fluorescence emission in DMSO, Hitachi F-4500, 2.0 µM, excitation at approximately 668 nm; for Stokes Shift: in DMSO
Method: as §1

[3] = cited from earlier work
Excerpt: (§2) Pyro is a very promising photosensitizer with ideal photoactivity properties, including a high extinction coefficient (3.79 × 10^4 L mol^−1 cm^−1) and a high singlet oxygen quantum yield (over 50%). […] Solving the tumor enrichment problem is very important for its clinical application. Here, to further increase the affinity of RGD peptide-coupled Pyro conjugates to the receptor αvβ3 integrin, we synthesized multimeric RGD-coupled Pyro conjugates to increase the affinity via multivalent and cluster effects, thereby improving the upt ...

tumors in a mouse model = conditions: general statement on Pyro; no reference given at the statement; cited from earlier work
Excerpt: as §2

[4] = target: human isolated αvβ3 integrin receptors (ITGAV&ITGB3 heterodimer) (Homo sapiens, UniProt P05106+P06756); assay: Receptor binding assay: competitive inhibition of biotinylated vitronectin binding to αvβ3 integrin; conditions: for IC50: biotinylated vitronectin 2.0 μg/mL, integrin 2.0 μg/mL in PBS pH 7.4, 4 °C overnight, test compounds 10^−3 to 10^−11 M, 3 h, 37 °C shaker, streptavidin–HRP/TMB, absorbance 450 nm, nonlinear regression GraphPad Prism 5.0, means ± SD of triplicate determinations
Method: Human integrin αvβ3 (ITGAV&ITGB3) heterodimer protein was diluted to 2.0 μg/mL in PBS buffer (pH 7.4) and was then added to a 96-well plate (100 μL/well) and incubated overnight at 4 °C. The plate was blocked with 10% milk solution for an additional 2 h in a 37 °C shaker, followed by a 3 h incubation in the 37 °C shaker with various concentrations (10^−3 to 10^−11 M) of test compounds in the presence of biotinylated vitronectin (2.0 μg/mL). After washing, the plates were incubated for 1 h in the 37 °C shaker with streptavidin–HRP and then washed again, followed by 30 min of incubation with 100 μL/well TMB single-component substrate solution before stopping the reaction with the addition of 100 μL/well 2.0 N H2SO4. The absorbance at 450 nm was read on a microplate reader. Each data point represents the average of the triplicate wells, and data analysis was performed using nonlinear regression analysis with GraphPad Prism 5.0 software (GraphPad Software, Inc., San Diego, CA, USA.).

U87-MG tumor [5] = type: in vivo, Balb/c nude mice; human U87-MG cells
Excerpt: To examine the tumor enrichment of these conjugates in vivo, we prepared a xenograft tumor model by subcutaneously inoculating mice with U87-MG tumor cells ([…]) on the axilla. U87-MG cells have high expression levels of the αvβ3 integrin receptor. When the tumors grew to approximately 200 mm^3 in volume, the conjugates (50 nmol per mouse) were intravenously injected into the mice via the tail vein. The fluorescence signal and intensity distribution were continuously monitored using an in vivo fluorescence imaging system (IVIS Lumina II, Xenogen, Alameda, CA, USA). […] However, relatively weak fluorescence signals in the tumor site could be detected. […] The increased water hydrophilicity of the divalent and trivalent conjugates may contribute to the reduction in the liver accumulation.
Human U87-MG cells (4 × 10^6 cells/mouse) were subcutaneously inoculated on the axilla of female Balb/c nude mice. […] In vivo fluorescence analysis was performed before and after the injection at various time points using the IVIS Lumina imaging system (IVIS Lumina II, Xenogen, USA) with a Cy5.5 filter (excitation: 615–665 nm, emission: 695–770 nm). Alternatively, the mice were euthanized at 2 h postinjection, and major organs, including the heart, liver, spleen, lungs, kidneys, and muscles, as well as the tumor, were collected; fluorescence images were then acquired.

U87-MG tumor [6] = type: in vivo, Balb/c nude mice; human U87-MG cells; conditions: 50 nmol/mouse i.v.; mice euthanized 2 h postinjection; vs the other two conjugates; triplicates
Method: To further verify the tumor targeting ability of these conjugates, the mice were euthanized 2 h postinjection, and their organs were collected for imaging. As shown in Figure 3B (heart, liver, spleen, lungs, and tumor from left to right), when the valence of the conjugates increased, the fluorescence signal in the tumor region increased.
Human U87-MG cells (4 × 10^6 cells/mouse) were subcutaneously inoculated on the axilla of female Balb/c nude mice. When the tumors grew to 200 mm^3, the mice were divided into three groups with each group containing three mice. The mice were then intravenously injected with 50 nmol/mouse of Pyro-MonoRGD, Pyro-DiRGD, and Pyro-TriRGD, respectively. In vivo fluorescence analysis was performed before and after the injection at various time points using the IVIS Lumina imaging system (IVIS Lumina II, Xenogen, USA) with a Cy5.5 filter (excitation: 615–665 nm, emission: 695–770 nm). Alternatively, the mice were euthanized at 2 h postinjection, and major organs, including the heart, liver, spleen, lungs, kidneys, and muscles, as well as the tumor, were collected; fluorescence images were then acquired.

αvβ3 integrin receptor = conditions: compared with antibody molecules; no reference given at the statement; cited from earlier work
Excerpt: However, compared with antibody molecules, small molecule ligands have a much weaker affinity to their receptors, which makes their tumor enrichment not always ideal. In our former work, we coupled a very promising photosensitizer, pyropheophorbide-a (Pyro), which has ideal photosensitizer properties, with a small molecule tumor homing ligand—cyclo(-RGDfK-)—to prepare a tumor-targeted conjugate. The cyclic peptide cyclo(-RGDfK-), which contains a conformationally restrained RGD sequence, has been often used for targeting tumor imaging and/or therapeutic agents as a high affinity ligand ...

Row | Compound | singlet oxygen quantum yield ΦΔ [1] | λmax [2] | λem [2] | Stokes Shift [2] | IC50 [4] | other results
1 | C=Cc1c(C)c2cc3nc(c4c5[nH]c(cc6nc(cc1[nH]2)C(C)=C6CC)c(C)c5C(=O)C4)[C@@H](CCC(=O)O)[C@@H]3C [Pyro, pyropheophorbide-a, reference compound] | 0.52 | 668 nm | 673 nm | 5 nm | – | extinction coefficient [3]: 37900 L/mol/cm; singlet oxygen quantum yield [3]: over 50%; tumor localization ability (tumors in a mouse model): very limited tumor localization ability
2 | C=Cc1c(C)c2cc3nc(c4c5[nH]c(cc6nc(cc1[nH]2)C(C)=C6CC)c(C)c5C(=O)C4)[C@@H](CCC(=O)NC(COCCC(=O)NCCCOCCOCCOCCCNC(=O)C[C@@H]1NC(=O)[C@@H](Cc2ccccc2)NC(=O)[C@H](CC(=O)O)NC(=O)CNC(=O)[C@H](CCCNC(=N)N)NC1=O)COCCC(=O)NCCCOCCOCCOCCCNC(=O)C[C@@H]1NC(=O)[C@@H](Cc2ccccc2)NC(=O)[C@H](CC(=O)O)NC(=O)CNC(=O)[C@H](CCCNC(=N)N)NC1=O)[C@@H]3C (stereo partly drawn) [Pyro-DiRGD] | 0.47 | 668 nm | 673 nm | 5 nm | 313 ± 23.1 nM | –
3 | C=Cc1c(C)c2cc3nc(c4c5[nH]c(cc6nc(cc1[nH]2)C(C)=C6CC)c(C)c5C(=O)C4)[C@@H](CCC(=O)NCCCOCCOCCOCCCNC(=O)C[C@@H]1NC(=O)[C@@H](Cc2ccccc2)NC(=O)[C@H](CC(=O)O)NC(=O)CNC(=O)[C@H](CCCNC(=N)N)NC1=O)[C@@H]3C [Pyro-MonoRGD] | – | – | – | – | 951 ± 39.6 nM | –
4 | C=Cc1c(C)c2cc3nc(c4c5[nH]c(cc6nc(cc1[nH]2)C(C)=C6CC)c(C)c5C(=O)C4)[C@@H](CCC(=O)NC(COCCC(=O)NCCCOCCOCCOCCCNC(=O)C[C@@H]1NC(=O)[C@@H](Cc2ccccc2)NC(=O)[C@H](CC(=O)O)NC(=O)CNC(=O)[C@H](CCCNC(=N)N)NC1=O)(COCCC(=O)NCCCOCCOCCOCCCNC(=O)C[C@@H]1NC(=O)[C@@H](Cc2ccccc2)NC(=O)[C@H](CC(=O)O)NC(=O)CNC(=O)[C@H](CCCNC(=N)N)NC1=O)COCCC(=O)NCCCOCCOCCOCCCNC(=O)C[C@@H]1NC(=O)[C@@H](Cc2ccccc2)NC(=O)[C@H](CC(=O)O)NC(=O)CNC(=O)[C@H](CCCNC(=N)N)NC1=O)[C@@H]3C (stereo partly drawn) [Pyro-TriRGD] | 0.48 | 668 nm | 673 nm | 5 nm | 43.8 ± 8.2 nM | tumor accumulation, 2–6 h postinjection (U87-MG tumor [5]; 50 nmol/mouse i.v., 2–6 h postinjection): excellent tumor accumulation at 2–6 h postinjection; tumor enrichment, overall comparison (U87-MG tumor [5]; compared with the other two conjugates): had the best tumor enrichment compared with the other two conjugates; binding to integrin αvβ3, fold better than Pyro-DiRGD ([4]; ratio vs divalent Pyro-DiRGD): 7 -fold; binding to integrin αvβ3, fold better than Pyro-MonoRGD ([4]; ratio vs monovalent Pyro-MonoRGD): 20 -fold; fluorescence intensity in excised tumor, 2 h postinjection (U87-MG tumor [6]): the highest fluorescence intensity at the tumor site
5 | cyclo(-RGDfK-) | – | – | – | – | – | affinity to αvβ3 integrin receptor (αvβ3 integrin receptor): only has a moderate affinity to the αvβ3 integrin receptor
